Assay results: patent US7803377B2, “Anti-DLL4 antibodies and methods using same” (Genentech, Inc., priority 2006, dated 2010)

Assays:
[1] = system: human colon carcinoma Colo205 cells; experiment: Tumor model Colo205; assay type: in vivo, mouse
Procedure: (§1) Tumor models. Beige nude female mice of 8- to 10-week-old were used. To obtain subcutaneous tumors, mice were injected with 0.1 ml cell suspension containing 50% matrigel (BD Bioscience) into the right posterior flank. 5×10^6 human colon cancer HM7 cells, 10×10^6 human colon carcinoma Colo205 cells, 10×10^6 human lung carcinoma Calu6 cells, 10×10^6 human lung carcinoma MV-522 cells, 10×10^6 mouse leukemia WEHI-3 cells, 10×10^6 mouse lymphoma EL4 cells, 10×10^6 human ovarian cancer SK-OV-3 X1 cells, 10×06 mouse lung cancer LL2 cells, 10×10^6 leukemia/lymphoma EL4 cells, or 10×10^6 non-small lung cancer H1299 cells were injected into each mouse. For human melanoma MDA-MB-435 model, mice were injected into the mammary fat pad with 0.1 ml cell (5×10^6) suspension containing 50% matrigel. […] For the following tumor models, each test mouse received a subcutaneous tumor fragment (1 mm^3) implanted in the right flank: non-small lung cancer SKMES-1, human breast cancer MX-1, human colorectal cancer SW620 and human adenocarcinoma LS174T. The tumor growth was quantitated by caliper measurements. Tumor volume (mm^3) was determined by measuring the length (l) and width (w) and calculating the volume (V=lw2/2). 10 to 15 animals were included in each group. Statistical comparison of treatment groups was performed using two-tailed Student's t-test. […]

mouse DLL4 = mouse DLL4 (Mus musculus, UniProt Q9JI71); experiment: ELISA binding to coated purified recombinant proteins; conditions: plates coated with recombinant protein 1 μg/ml
mouse DLL4, sequence (Q9JI71 27-686): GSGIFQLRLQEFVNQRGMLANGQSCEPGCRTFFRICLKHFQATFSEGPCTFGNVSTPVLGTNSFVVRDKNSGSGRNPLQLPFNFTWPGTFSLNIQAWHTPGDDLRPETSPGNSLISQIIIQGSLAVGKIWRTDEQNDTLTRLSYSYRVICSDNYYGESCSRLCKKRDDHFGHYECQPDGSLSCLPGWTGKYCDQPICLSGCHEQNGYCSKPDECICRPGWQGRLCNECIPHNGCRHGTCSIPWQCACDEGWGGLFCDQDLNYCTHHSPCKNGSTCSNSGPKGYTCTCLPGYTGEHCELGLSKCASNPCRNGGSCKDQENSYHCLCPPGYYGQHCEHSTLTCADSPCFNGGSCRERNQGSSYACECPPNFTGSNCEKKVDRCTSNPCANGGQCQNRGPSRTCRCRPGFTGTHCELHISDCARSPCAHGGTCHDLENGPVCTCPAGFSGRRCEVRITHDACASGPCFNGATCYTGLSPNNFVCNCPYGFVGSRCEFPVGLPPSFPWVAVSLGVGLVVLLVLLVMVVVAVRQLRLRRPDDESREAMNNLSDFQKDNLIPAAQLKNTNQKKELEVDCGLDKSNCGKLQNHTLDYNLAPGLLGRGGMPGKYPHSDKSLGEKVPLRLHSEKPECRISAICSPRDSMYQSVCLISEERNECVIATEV
Procedure: (§2) 96-well Nunc Maxisorp plates were coated with purified recombinant proteins as indicated (1 μg/ml). […] Bound antibodies were detected with anti-human antibody HRP conjugate using TMB as substrate and OD 450 nm absorbance measurement. Anti-HER2 and recombinant ErbB2-ECD were used as assay control (FIG. 11b).

DLL1 = biological target: T1, DLL1 (Homo sapiens, UniProt O00548); experiment: as above; conditions: plates coated with recombinant protein 1 μg/ml
T1 sequence (O00548 18-723): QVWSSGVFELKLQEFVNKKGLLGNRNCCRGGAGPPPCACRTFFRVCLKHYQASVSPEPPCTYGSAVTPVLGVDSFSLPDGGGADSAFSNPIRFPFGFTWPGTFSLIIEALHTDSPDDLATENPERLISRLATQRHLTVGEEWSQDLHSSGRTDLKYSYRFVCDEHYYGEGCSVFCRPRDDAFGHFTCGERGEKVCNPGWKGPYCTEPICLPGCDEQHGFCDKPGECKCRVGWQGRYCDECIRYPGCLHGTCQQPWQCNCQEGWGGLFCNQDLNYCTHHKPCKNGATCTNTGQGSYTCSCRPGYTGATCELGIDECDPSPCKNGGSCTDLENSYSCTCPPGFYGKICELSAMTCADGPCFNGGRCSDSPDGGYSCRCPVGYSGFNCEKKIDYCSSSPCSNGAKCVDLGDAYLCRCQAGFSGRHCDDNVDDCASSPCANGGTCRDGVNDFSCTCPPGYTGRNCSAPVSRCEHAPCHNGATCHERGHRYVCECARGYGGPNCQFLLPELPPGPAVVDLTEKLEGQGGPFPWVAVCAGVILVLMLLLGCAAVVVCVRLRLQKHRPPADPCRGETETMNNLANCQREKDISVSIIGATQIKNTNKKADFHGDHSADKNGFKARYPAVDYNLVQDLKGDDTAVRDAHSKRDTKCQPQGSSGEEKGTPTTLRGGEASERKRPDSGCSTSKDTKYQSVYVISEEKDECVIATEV
Procedure: as §2

[2] = system: human melanoma MDA-MB-435; experiment: Tumor model MDA-MB-435 (mammary fat pad); assay type: in vivo, mouse; conditions: treatment started 14 days post tumor cell injection
Procedure: as §1

[3] = system: non-small lung cancer SKMES-1; experiment: Tumor model SKMES-1; assay type: in vivo, mouse; conditions: 5 mg/kg, IP, twice weekly after establishment of the tumors
Procedure: as §1

EL4 mouse lymphoma tumor = experiment: Tumor vascular labeling and immunohistochemistry (EL4 tumors); assay type: in vivo
Procedure: Tumor vascular labeling and immunohistochemistry. Mice were anesthetized with Isoflurane. FITC-labeled Lycopersicon esculentum Lectin (150 μg in 150 μl of 0.9% NaCl; Vector Laboratories) was injected i.v. and allowed to circulate for 5 min before systemic perfusion. The vasculature was perfused transcardially with 1% PFA in PBS for 3 min. Tumors were removed and post fixed by immersion in the same fixative for 2 hr, followed by an incubation in 30% sucrose overnight for cryoprotection, then embedded in OCT. Sections (4 μm thickness) were stained with anti-mouse CD31 (1:50, BD Pharmingen), followed by Alexa 594 goat anti-rat IgG (1:800, Molecular Probes).
In light of the tumor growth inhibition, we used the EL4 mouse lymphoma tumor model for vascular histology studies.
Since in vitro blocking of DLL4/Notch pathway impaired the formation of lumen-like structure by ECs (FIG. 8a), it was investigated whether treatment with anti-DLL4 Mab caused similar defect in the tumor vasculature and affected efficient blood flow. […] Given the critical role of DLL4/Notch signaling in AV differentiation, both in embryos and early postnatal retinas, anti-DLL4 Mab could impact cell fate specification of tumor ECs and cause defective directional blood flow. […] Further studies utilizing vascular imaging techniques are needed to gain insights into the precise vascular defects.

mouse lymphoma EL4 cells = experiment: Tumor model EL4; assay type: in vivo; conditions: 5 mg/kg, IP, twice weekly after establishment of the tumors
Procedure: as §1

[4] = biological target: T2, endogenously expressed DLL4 (Homo sapiens, UniProt Q9NR61); experiment: FACS analysis of HUVECs transfected with control or DLL4-specific siRNA; conditions: antibody 2 μg/ml, binding reduced with DLL4 siRNA
T2 construct: endogenous in cells; host or cells: HUVEC
Procedure: RNA interference. SMARTpool small interfering RNA (siRNA) duplexes targeting human DLL4 and Si Control Non-Target siRNA #2 were purchased from Dharmacon. Transfection of siRNR duplexes (50 nM) was done with HUVECs at 40% confluency using OptiMEM-1® and Lipfectamine™ 2000 (Invitrogen). FACS analysis was done 48 hr after siRNA transfection. The sequences of the 4 anti-DLL4 SMART pool siRNA were as follows:
FACS analysis of HUVECs transfected with control or DLL4-specific siRNA.

[5] = system: human ovarian cancer SK-OV-3 X1 cells; experiment: Tumor model SK-OV-3X1; assay type: in vivo, mouse; conditions: 5 mg/kg, IP, twice weekly after establishment of the tumors
Procedure: as §1

Substance: YW26.82: affinity matured anti-DLL4 monoclonal antibody; HVR-H1/H2/H3 SEQ ID NO:1, 8, 9; HVR-L1/L2/L3 SEQ ID NO:10, 11, 18
- tumor histology: EC density and viable tumor cell content ([1]; anti-DLL4 Mab treated Colo205 tumors): high EC density was associated with low viable tumor cell content
- tumor volume ([1]; treatment initiated at ≧250 mm^3, 10 mg/kg i.p. twice weekly, two weeks of treatment): remained static
- binding by ELISA (mouse DLL4): bound
- binding by ELISA (DLL1): did not delectably bind
- tumor growth [2]: inhibited tumors growing in mouse mammary fat pads
- tumor growth, single agent [3]: inhibited tumor growth alone
- endothelial cell density (anti-CD31) in tumor sections (EL4 mouse lymphoma tumor; EL4 tumors): dramatic increase in endothelial cell density
- FITC-lectin labeling of tumor vessels (vascular perfusion) (EL4 mouse lymphoma tumor; systemic perfusion with FITC-lectin, EL4 tumor sections): marked reduction of lectin labeling of tumor vessels
- tumor growth, single agent (mouse lymphoma EL4 cells): inhibited tumor growth alone
- binding to endogenously expressed DLL4 by FACS [4]: specifically bound to endogenously expressed DLL4
- tumor growth, single agent [5]: inhibited tumor growth alone
